The results in this text go back to ChEMBL document CHEMBL5244208, “Privileged scaffolds as MAO inhibitors: Retrospect and prospects” (Eur J Med Chem, 2018).

“And” between values parts separate entries of the source, which are not always exact repeats. Equal values may be shown once.

The first data set has as its target T1, Amine oxidase [flavin-containing] A (Rattus norvegicus, UniProt P21396).
T1 sequence (P21396 whole entry): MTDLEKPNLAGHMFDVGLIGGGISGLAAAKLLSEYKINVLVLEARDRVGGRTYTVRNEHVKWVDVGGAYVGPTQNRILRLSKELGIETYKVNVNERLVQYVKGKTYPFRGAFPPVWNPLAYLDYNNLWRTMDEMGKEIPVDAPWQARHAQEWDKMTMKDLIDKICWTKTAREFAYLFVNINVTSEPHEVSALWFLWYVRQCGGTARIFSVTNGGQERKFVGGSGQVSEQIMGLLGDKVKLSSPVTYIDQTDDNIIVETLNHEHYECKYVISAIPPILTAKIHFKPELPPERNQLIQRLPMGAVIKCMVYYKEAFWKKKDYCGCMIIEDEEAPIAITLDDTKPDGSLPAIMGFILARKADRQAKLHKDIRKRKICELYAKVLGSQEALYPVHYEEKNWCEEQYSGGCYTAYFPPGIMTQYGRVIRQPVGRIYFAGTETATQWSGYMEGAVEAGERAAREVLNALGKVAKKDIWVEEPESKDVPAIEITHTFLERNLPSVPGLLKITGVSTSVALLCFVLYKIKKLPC
Kind of data set: Inhibition of rat MAO-A.
Settings: not given
The compound `O=C1C[C@@H](c2ccc(O)cc2)Oc2cc(O)cc(O)c21` [NARINGENIN] gave an IC50 of 342 µM.

The target of another data set is T2, Amine oxidase [flavin-containing] A (Homo sapiens, UniProt P21397).
T2 sequence (P21397 whole entry): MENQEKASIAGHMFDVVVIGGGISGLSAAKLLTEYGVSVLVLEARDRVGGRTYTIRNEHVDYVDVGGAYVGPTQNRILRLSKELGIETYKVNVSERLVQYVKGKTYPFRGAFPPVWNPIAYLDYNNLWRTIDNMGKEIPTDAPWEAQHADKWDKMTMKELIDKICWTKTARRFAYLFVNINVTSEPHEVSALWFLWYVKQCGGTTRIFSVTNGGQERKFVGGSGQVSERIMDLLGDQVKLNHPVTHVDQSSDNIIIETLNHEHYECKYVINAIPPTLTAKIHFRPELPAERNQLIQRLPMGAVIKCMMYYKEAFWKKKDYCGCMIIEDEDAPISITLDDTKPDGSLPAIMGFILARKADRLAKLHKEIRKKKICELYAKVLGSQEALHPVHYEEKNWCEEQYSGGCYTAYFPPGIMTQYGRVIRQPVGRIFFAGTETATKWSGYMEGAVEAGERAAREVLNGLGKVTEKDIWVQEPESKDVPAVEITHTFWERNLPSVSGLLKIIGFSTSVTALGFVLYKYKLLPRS
Put plainly: Inhibition of MAO-A (unknown origin) incubated for 60 mins by fluorometric spectrophotometry analysis.
Settings: not given
Consider `O=c1c(O)c(-c2ccc(O)c(O)c2)oc2cc(O)cc(O)c12` [QUERCETIN], for which the IC50 was 11.6 µM and 10.9 µM.
Still for that read-out and setting: as for `O=c1c(O[C@@H]2O[C@H](CO)[C@@H](O)[C@H](O)[C@H]2O)c(-c2ccc(O)c(O)c2)oc2cc(O)cc(O)c12` [ISOQUERCETIN], the figure is 19.1 µM; as for `C[C@@H]1O[C@@H](OC[C@H]2O[C@@H](Oc3c(-c4ccc(O)c(O)c4)oc4cc(O)cc(O)c4c3=O)[C@H](O)[C@@H](O)[C@@H]2O)[C@H](O)[C@H](O)[C@H]1O` [RUTIN], 3.89 µM.

The target of another data set is T1, Amine oxidase [flavin-containing] A. Kind of data set: In vivo inhibition of MAO-A in Wistar rat with assessed as decrease in MAO activity in […] at 10 to 30 mg/kg, ip measured after 2 hrs. In kind it is functional, organism-based. Details: scale not given: the % may be the effect or the level left. As to conditions: dose 10-30 mg/kg.
On to `C[C@]12CC[C@H](O)CC1=CC[C@@H]1[C@@H]2CC[C@]2(C)C(=O)CC[C@@H]12` [PRASTERONE], for which the Activity is recorded as -24%.

Another data set deals with T2, Amine oxidase [flavin-containing] A. Kind of data set: Inhibition of human recombinant MAO-A.
Settings: not given
For the compound `CC(=O)Nc1ccc2c(c1)C(=O)c1ccccc1C2=O`, the IC50 amounted to 10 nM.
In the case of `CC(=O)Nc1ccc2c(O)c3ccccc3nc2c1`, the IC50 was found to be 10 nM.
Regarding `CCc1ccc2c(c1)S(=O)(=O)c1cc(NC(C)=O)ccc1C2=O`, the IC50 came out at 10 nM.
On the same count and under the same terms, as for `CC(=O)Nc1ccc2c(c1)C(=O)c1ccccc1S2(=O)=O`, the figure is 10 nM; as for `CC(=O)Nc1ccc2c(c1)S(=O)(=O)c1ccccc1C2=O`, 10 nM; as for `CC(=O)Nc1cccc2c1C(=O)c1ccccc1C2=O`, 10 nM.
On the same count and under the same terms, as for `CC(=O)Nc1ccc2c(c1)S(=O)(=O)c1cc(C)ccc1C2=O`, the figure is 10 nM; as for `CC(=O)Nc1ccc2c(c1)S(=O)(=O)c1ccccc1O2`, 10 nM; as for `CC(=O)Nc1cc2c(cc1NC(C)=O)S(=O)(=O)c1ccccc1C2`, 10 nM.
As for `CC(=O)Nc1ccc2c(c1)S(=O)(=O)c1ccccc1N2C`, the IC50 came to 10 nM.
Same read-out and setting: as for `O=CN(C=O)c1ccc2c(c1)S(=O)(=O)c1ccccc1C2=O`, the figure is 10 nM.
On the same count and under the same terms, as for `CC(=O)Nc1ccc2c(c1)S(=O)(=O)c1cc(NC(C)=O)ccc1N2C`, the figure is 10 nM; as for `CCCc1ccc2c(c1)S(=O)(=O)c1cc(NC(C)=O)ccc1C2=O`, 10 nM.
Still for that read-out and setting: as for `CC(=O)Nc1ccc2c(c1)S(=O)(=O)c1ccccc1N2`, the figure is 10 nM.

For the next data set, the target named is T3, Amine oxidase [flavin-containing] B (Homo sapiens, UniProt P27338).
T3 sequence (P27338 whole entry): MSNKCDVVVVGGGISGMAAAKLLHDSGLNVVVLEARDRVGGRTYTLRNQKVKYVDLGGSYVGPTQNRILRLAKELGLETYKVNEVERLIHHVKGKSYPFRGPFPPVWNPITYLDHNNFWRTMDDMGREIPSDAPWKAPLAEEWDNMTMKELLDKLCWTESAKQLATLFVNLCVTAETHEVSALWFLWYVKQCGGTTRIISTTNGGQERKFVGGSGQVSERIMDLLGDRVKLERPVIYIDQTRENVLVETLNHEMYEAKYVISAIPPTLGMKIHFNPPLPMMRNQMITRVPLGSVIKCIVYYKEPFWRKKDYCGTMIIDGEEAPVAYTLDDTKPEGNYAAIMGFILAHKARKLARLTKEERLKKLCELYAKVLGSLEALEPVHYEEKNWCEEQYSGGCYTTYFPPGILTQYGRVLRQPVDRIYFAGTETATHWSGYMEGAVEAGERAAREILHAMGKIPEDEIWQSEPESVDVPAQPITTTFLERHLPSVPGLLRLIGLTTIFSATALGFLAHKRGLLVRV
Put plainly: Inhibition of MAO-B (unknown origin).
Settings: not given
`NS(=O)(=O)Cc1noc2ccccc12` [ZONISAMIDE] registered a Ki of 30.8 µM.

Staying with this data set, now noted: read-out: IC50.
On to `COc1ccc(/C(=C\F)CN)cc1OC`, for which the IC50 was 10 nM.

Still in this data set, the particulars now being: read-out: pIC50 (converted).
As to `C/C(=C\COc1ccc2ccc(=O)oc2c1)C1=CC(=O)C(C)(C)O1` [GEIPARVARIN], the IC50 is 24000 nM.
Same read-out and setting: as for `O=c1oc2ccc(Cl)cc2cc1Cl`, the figure is 10 nM.

For the next data set, the target named is T3, Amine oxidase [flavin-containing] B. Put plainly: Irreversible inhibition of human recombinant MAO-B.
Settings: not given
For the compound `C#CCN(C)Cc1ccc(C(=O)NC2CC(C)(C)N([O])C(C)(C)C2)cc1`, the Ki came to 15 µM.

The target in another data set is T2, Amine oxidase [flavin-containing] A. Put plainly: Inhibition of MAO-A (unknown origin).
Settings: not given
For `C#CCN(C)Cc1ccc[nH]1`, the Ki is […].
Turning to `C[C@@H]1O[C@@H](Oc2c(-c3ccc(O)c(O)c3)oc3cc(O)cc(O)c3c2=O)[C@H](O)[C@H](O)[C@H]1O` [QUERCITRIN], the IC50 was 18 µM.

Another data set deals with T3, Amine oxidase [flavin-containing] B. Put plainly: Inhibition of human MAO-B.
Settings: not given
`N#CCCn1nnc(-c2ccc(OCc3cccc(Cl)c3)cc2)n1` returned an IC50 of 8 µM.
The same measure, in the same setting: as for `N#CCCn1nnc(-c2ccc(OCc3ccccc3)cc2)n1`, the figure is 8 µM.
On the same count and under the same terms, as for `OCCn1nnc(-c2ccc(OCc3ccccc3)cc2)n1`, the figure is 0.002 µM; as for `OCCn1nnc(-c2ccc(OCc3cccc(Cl)c3)cc2)n1`, 0.002 µM; as for `Oc1ccc(/C=C/c2cc(O)cc3c2[C@@H](c2cc(O)cc(O)c2)C(c2ccc(O)cc2)O3)cc1` (stereo not given in full), 5 µM.

Another data set concerns the target T2, Amine oxidase [flavin-containing] A. Kind of data set: Inhibition of human MAO-A using tyramine hydrochloride as substrate preincubated for 30 mins followed by substrate addition and measured for 1 hr by microplate reader method.
Settings: not given
Regarding `O=C(c1cc(O)cc(O)c1)c1c(O[C@@H]2OC[C@@H](O)[C@H](O)[C@H]2O)cc(O)cc1O[C@H]1O[C@@H](CO)[C@H](O)[C@H]1O`, the IC50 was determined as 726 µM.
On the same count and under the same terms, as for `O=C(c1cc(O)cc(O)c1)c1c(O)cc(O)cc1O[C@H]1O[C@@H](CO)[C@H](O)[C@H]1O`, the figure is 111 µM; as for `COc1cc(O)cc(O[C@H]2O[C@@H](CO)[C@H](O)[C@H]2O)c1C(=O)c1cc(O)cc(O)c1`, 310 µM.

A further data set has the same target. Put plainly: Irreversible inhibition of human recombinant MAO-A.
Settings: not given
With `C#CCN(C)Cc1cccc(C(=O)NC2CC(C)(C)N([O])C(C)(C)C2)c1`, the Ki was found to be 268 µM.

The target in another data set is Acetylcholinesterase (Homo sapiens, UniProt P22303). Kind of data set: Inhibition of AChE (unknown origin) using acetylthiocholine chloride as substrate incubated for 5 mins by DTNB reagent based Ellman's method.
Chain of Acetylcholinesterase (P22303 whole entry): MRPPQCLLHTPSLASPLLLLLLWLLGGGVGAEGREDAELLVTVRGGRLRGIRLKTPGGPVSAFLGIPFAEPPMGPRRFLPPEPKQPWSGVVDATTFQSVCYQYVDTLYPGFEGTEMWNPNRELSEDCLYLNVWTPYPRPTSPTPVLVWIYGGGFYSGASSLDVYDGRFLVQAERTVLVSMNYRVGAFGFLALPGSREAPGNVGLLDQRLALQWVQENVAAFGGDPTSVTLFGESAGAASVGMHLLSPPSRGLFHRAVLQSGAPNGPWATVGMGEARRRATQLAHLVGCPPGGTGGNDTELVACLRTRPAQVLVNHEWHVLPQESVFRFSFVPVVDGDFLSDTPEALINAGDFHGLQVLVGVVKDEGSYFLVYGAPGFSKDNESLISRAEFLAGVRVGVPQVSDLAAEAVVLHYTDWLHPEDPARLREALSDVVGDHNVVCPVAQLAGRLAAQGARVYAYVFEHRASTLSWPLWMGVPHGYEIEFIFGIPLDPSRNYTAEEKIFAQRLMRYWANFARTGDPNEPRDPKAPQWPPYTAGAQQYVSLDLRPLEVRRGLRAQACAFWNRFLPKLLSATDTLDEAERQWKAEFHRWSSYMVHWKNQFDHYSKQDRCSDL
Settings: not given
(Ellman's reagent forms a yellow product with free thiols.)
`Cc1c(C)c2ccc(OCCc3ccccc3)cc2oc1=O`: the IC50 came to 3 µM.
`Cc1cc(=O)c2cc(Oc3ccccc3)ccc2o1` had an IC50 of 3 µM.
On the same count and under the same terms, as for `Cc1c(C)c2ccc(OCc3ccc(F)c(F)c3)cc2oc1=O`, the figure is 3 µM; as for `Cc1c(C)c2ccc(OCc3ccccc3)cc2oc1=O`, 3 µM.
The same measure, in the same setting: as for `Cc1c(C)c2ccc(OCc3cccc(O)c3)cc2oc1=O`, the figure is 3 µM.
The same measure, in the same setting: as for `Cc1c(C)c2ccc(OCc3cc(F)cc(F)c3)cc2oc1=O`, the figure is 3 µM; as for `Cc1c(C)c2ccc(OCc3cccc(N)c3)cc2oc1=O`, 3 µM; as for `O=c1ccoc2ccc(Oc3ccccc3)cc12`, 3 µM.
Compound `Cc1ccccc1COc1ccc2c(C)c(C)c(=O)oc2c1` returned an IC50 of 3 µM.

Another data set has as its target T2, Amine oxidase [flavin-containing] A. Kind of data set: Inhibition of recombinant human MAO-A using kynuramine as substrate incubated for 20 mins by spectrophotometry analysis.
Settings: not given
For the compound `COC[C@H]1CN(n2cccc2)C(=O)O1`, the Ki was determined as 4.9 nM.
